Data set [1] concerns microtubule bundling. Particulars: Rowinsky et al., Cancer Research 48: 4093-4100, 1988; cited from earlier work.
Data set [2] can be described thus: In vivo concentration-time course of paclitaxel after intraperitoneal injection. Conditions: rat, 16 mg/kg intraperitoneal, OCP or conventional formulation, HPLC. As to the method:
“Conventional” formulations of paclitaxel were prepared by adding 6 mg paclitaxel to 1 mL of a mixture (1:1, v/v) of anhydrous alcohol and Cremophor® EL (Sigma Chemical Company, St. Louis, Mo.). […] At the indicated time points, animals were euthanized and blood, peritoneal fluid, liver, and spleen samples were collected, processed and quickly frozen.
Paclitaxel concentrations in plasma, peritoneal fluid, and homogenized tissues were determined by HPLC after liquid-liquid extraction of the samples with diethyl ether followed by solid-phase extraction (Bond Elut; Varian, Harbor City, Calif.). The samples were then suspended in 45:15:40 acetonitrile:methanol:water, and 50 μL was injected onto a Waters Symmetry C18 column (Waters, Taunton, Mass.) with a Hewlett-Packard Model 1100 solvent delivery system (Hewlett-Packard, Wilmington, Del.). The mobile phase was a mixture of acetonitrile, methanol, and 0.2 M ammonium acetate at pH 5 (45:15:40) with a rate of 1 mL/min; detection was at a wavelength of 230 nm. Apparent terminal half-lives (T1/2beta) were estimated from the terminal log-linear decline of the concentration-time profiles.

Data set [3] in a line: Solubility of bupivacaine free-base in triolein or tricaprylin. In kind it is physicochemical. As to the method: To confirm that the formation of bupivacaine crystals was related to differing solubility of the drug in the oils used, a solubility experiment was performed. Varying amounts of bupivacaine free-base were added to 1.0 g aliquots of either triolein or tricaprylin in small vials with Teflon-lined screw caps. These vials were heated to ˜70° C., shaken vigorously, cooled to room temperature, then 1.0 mL of 10 mM lysine/5% sorbitol was added to each vial. The vials were put in a 4° C. cold room for a month. […] This vial was the only one in which a precipitate disappeared upon warming to room temperature.

Data set [4] has as its system response to pin pricks. Put plainly: Guinea pig intracutaneous injection, response to pin pricks. It counts as in vivo, guinea pigs. Conditions: 1.0 mL intracutaneous, equivalent to 1% bupivacaine HCl monohydrate. As to the method:
This is used in an assay of anesthetic effect. Previously shaved guinea pigs (4-5 per group) were marked with a stencil in the form of a circular array, with 17 tick marks at various radii and directions from the center of the array. Animals anesthetized with Halothane were injected intracutaneously with 1.0 mL of either the tricaprylin-core bupivacaine suspension or a solution of 1% bupivacaine HCl monohydrate in 5% sorbitol. The response to pin pricks was tested at various post-injection intervals (30 min, 3, 6, 9, 12, 18, 24, 30 and 36 hours) and the results summarized in FIG. 3. A vocalization or muscle twitch was considered a positive response. The guinea pigs' response to the bupivacaine solution decayed to half of its maximum at about 3.6 hours after injection. An equivalent (on a molar basis) dose of bupivacaine free base tricaprylin-core suspension took about 8½ hours to decay to the same number of negative responses, and took about 11 hours to decay to half of the maximal response for this formulation.

[5] abbreviates: 4° C. for a month, with 10 mM lysine/5% sorbitol.

Values after ≈ are worked out from the molar mass of the structure shown. Where a name gives a salt, the structure may show the parent alone.

Take `CC(=O)O[C@H]1C(=O)[C@@]2(C)[C@H]([C@H](OC(=O)c3ccccc3)[C@]3(O)C[C@H](OC(=O)[C@H](O)[C@@H](NC(=O)c4ccccc4)c4ccccc4)C(C)=C1C3(C)C)[C@]1(OC(C)=O)CO[C@@H]1C[C@@H]2O` [Paclitaxel, paclitaxel]: in data set [1], the “minimum inhibitory concentration required to induce microtubule bundling and other cytotoxic effects in vitro” value was 0.085 µg/mL (≈ 0.0995 µM). Moreover, the “Paclitaxel levels in plasma” value in data set [2] is “below the limit of detection”.
Regarding `CCCCN1CCCCC1C(=O)Nc1c(C)cccc1C` (centres unmarked) [bupivacaine free-base, bupivacaine], the “relative solubility in tricaprylin and triolein” value in data set [3] is “more soluble in tricaprylin than in triolein”. Further, in data set [3] (setting [5]), the “bupivacaine content at which no precipitates were seen, in tricaprylin” value is given as at most 40 mg per g tricaprylin; the “bupivacaine content at which no precipitates were seen, in triolein” value was at most 20 mg per g triolein; the “bupivacaine content at which precipitates or large masses were seen, in tricaprylin” value is reported as at least 50 mg per g tricaprylin; the “bupivacaine content at which precipitates or large masses were seen, in triolein” value is at least 30 mg per g triolein.
`CCCCN1CCCCC1C(=O)Nc1c(C)cccc1C` (centres unmarked) [bupivacaine solution, bupivacaine HCl monohydrate]: the “time for response to decay to half of its maximum” value in data set [4] is on record as “about 3.6 hours”.

(Values after patent US20040213837A1, “Oil-core compositions for the sustained release of hydrophobic drugs” (priority 2002, published 2004).)
